In ChEMBL document CHEMBL5584289, “Molecular understanding of the therapeutic potential of melanin inhibiting natural products” (RSC Med Chem, 2024):
Converted amounts (≈) assume the structure as drawn. Blank lines part the entries; values can stand above or below the compound they belong to. Peptide text beside a SMILES is read from it.

Columns and labels:
[1] = Acute toxicity in zebrafish embryos assessed as lethal concentration compound measured for every 24 hrs in 96 hrs; set-up: species or system Danio rerio; conditions: in vivo
[2] = Inhibition of Artocarpus chama tyrosinase
[3] = target: T1, Mushroom tyrosinase (Agaricus bisporus) (UniProt O42713+Q00024+C7FF04+C7FF05); experiment: Inhibition of mushroom tyrosinase at 25 uM using L-tyrosine as substrate incubated for 30 mins relative to control; format: protein assay
Mushroom tyrosinase [4] = target: T2, Mushroom tyrosinase (Agaricus bisporus, UniProt O42713+Q00024+C7FF04+C7FF05); experiment: Inhibition of mushroom tyrosinase monophenolase activity; format: protein assay
[5] = Antioxidant activity assessed as hydroxyl radical scavenging activity at 10 uM; format: functional
[6] = Antioxidant activity assessed as DPPH radical scavenging activity; format: functional
[7] = Antioxidant activity assessed as interaction reducing activity with DPPH at 10 uM measured after 1 hr by absorbance based assay; format: functional
B16-F10 [8] = experiment: Cytotoxicity against mouse B16-F10 cells assessed as reduction in cell viability at 15 uM incubated for 72 hrs relative to control; format: functional
[9] = target: T1, Mushroom tyrosinase (Agaricus bisporus); experiment: Inhibition of mushroom tyrosinase at 50 ug/ml relative to control; format: protein assay; conditions: dose 50.0 µg/ml
[10] = Antioxidant activity assessed as DPPH radical scavenging activity measured after 30 mins; format: functional
[11] = Antioxidant activity assessed as ABTS radical scavenging activity; format: functional
Mushroom tyrosinase [12] = target: T2, Mushroom tyrosinase; experiment: Inhibition of mushroom tyrosinase; format: protein assay
MNT-1 = experiment: Antiproliferative activity against human MNT-1 cells assessed as reduction in cell viability incubated for 72 hrs by MTT assay; format: functional, cell-based; conditions: MNT-1, 72 h
Mushroom tyrosinase [13] = target: T2, Mushroom tyrosinase; experiment: Inhibition of mushroom tyrosinase diphenolase activity; format: protein assay
[14] = target: T1, Mushroom tyrosinase (Agaricus bisporus); experiment: Inhibition of mushroom tyrosinase monophenolase activity at 12.5 ug/ml using L-tyrosine as substrate relative to control; format: protein assay; conditions: dose 12.5 µg/ml
B16 = experiment: Cytotoxicity against mouse B16 cells assessed as inhibition of cell proliferation incubated for 48 hrs by MTS assay; format: functional, cell-based; conditions: B16, 48 h
[15] = target: T1, Mushroom tyrosinase (Agaricus bisporus); experiment: Inhibition of mushroom tyrosinase at 12.5 ug/ml using L-DOPA as substrate relative to control; format: protein assay; conditions: dose 12.5 µg/ml
B16-F10 [16] = experiment: Cytotoxicity against mouse B16-F10 cells; format: functional, cell-based
B16-F10 [17] = experiment: Antimelanogenic activity against alpha-MSH-stimulated mouse B16-F10 cells assessed as intracellular melanin production level at 10 uM pre-incubated for 1 hrs followed by alph-MSH stimulation and measured after 72 hrs by microplate reader analysis; format: functional; conditions: time 73 hrs

SMILES: COc1c(O)c(OC)c2c(oc3c(O)cccc32)c1OC
- LC50 at 24 h [1]: 4 µg/mL (≈ 13.8 µM)

SMILES: COc1cc2c(oc3c(O)cccc32)c(OC)c1OC
- LC50 at 24 h [1]: 37 µg/mL (≈ 135 µM)

- IC50 [2]: 38.78 µg/mL (≈ 128 µM)
SMILES: COc1cc(O)c2c(c1)OC(c1ccc(O)cc1O)CC2=O (stereo unspecified)

- inhibition [3]: 94.9%
- IC50 (Mushroom tyrosinase [4]): 0.17 µM
SMILES: C[C@@]12C[C@@]3(O)O[C@@H](O1)[C@]1(COC(=O)c4ccccc4)[C@H]3C[C@@]12O[C@@H]1O[C@H](COC(=O)c2cc(O)c(O)c(O)c2)[C@@H](O)[C@H](O)[C@H]1O

- IC50 [5]: 9.3 µM
- IC50 ([6]; read-out: IC50): 11.3 µM
- IC50 [7]: 69.1 µM
SMILES: CC(=O)CC(=O)c1ccc(O)c(O)c1

SMILES: COc1ccc2c(c1)oc1c(OC)c(O)c(OC)cc12
- LC50 at 24 h [1]: 30 µg/mL (≈ 109 µM)

SMILES: COc1cc2c(cc1O)[C@@H]1COc3cc(O)ccc3[C@@H]1O2
- Activity (B16-F10 [8]): 14%

- inhibition [9]: 16.3%
SMILES: O=C(O)CC(OC(=O)/C=C/c1ccc(O)cc1)C(=O)O (stereo unspecified)

SMILES: NCCCC[C@H](NC(=O)[C@H](Cc1cnc[nH]1)NC(=O)CN)C(=O)O (H-Gly-His-Lys-OH)
- LC50 at 24 h [1]: 30 µg/mL (≈ 88.1 µM)

- IC50 [6]: 67.45 µg/mL
- IC50 [10]: 5.65 µg/mL (≈ 32.1 µM)
- IC50 [11]: 44.62 µg/mL (≈ 253 µM)
SMILES: O=C1O[C@H]([C@@H](O)CO)C(O)=C1O [ASCORBIC ACID]

- IC50 (Mushroom tyrosinase [12]): 30 µM
SMILES: O=C(/C=C/c1ccc(O)c(O)c1)OC(C(=O)O)C(O)C(=O)O (stereo unspecified) [CAFFEOYLTARTARIC ACID]

SMILES: COc1cc(O)c2c(=O)c(-c3ccc(O)cc3O)coc2c1 [CAJANIN]
- IC50 (MNT-1): 1 µM

- IC50 (Mushroom tyrosinase [4]): 0.06 µM
- IC50 (Mushroom tyrosinase [13]): 0.07 µM
SMILES: Oc1cc(O)c2c(c1)O[C@H](c1ccc(O)c(O)c1)[C@@H](O)C2 [CIANIDANOL]

- inhibition [3]: 92.6%
- IC50 [6]: 7.31 µg/mL
SMILES: CC1(C)[C@@H](O)CC[C@]2(C)[C@H]3C(=O)C=C4[C@@H]5C[C@@](C)(C(=O)O)CC[C@]5(C)CC[C@@]4(C)[C@]3(C)CC[C@@H]12 [ENOXOLONE]

SMILES: O=C(O)c1cc(O)c(O)c(O)c1 [GALLIC ACID]
- IC50 (Mushroom tyrosinase [4]): 1.53 µM
- IC50 (Mushroom tyrosinase [13]): 1.06 µM

SMILES: O=C(OC[C@H]1O[C@@H](OC(=O)c2cc(O)c(O)c(O)c2)[C@H](OC(=O)c2cc(O)c(O)c(O)c2)[C@@H](OC(=O)c2cc(O)c(O)c(O)c2)[C@@H]1OC(=O)c1cc(O)c(O)c(O)c1)c1cc(O)c(O)c(O)c1 [PENTAGALLOYL GLUCOSE]
- IC50 (Mushroom tyrosinase [4]): 0.02 µM
- IC50 (Mushroom tyrosinase [13]): 0.02 µM

- inhibition [14]: 39.5%
- inhibition [15]: 40.9%
SMILES: C=C(CC[C@@H](C(=O)O)[C@H]1[C@H](O)C[C@@]2(C)C3=CC[C@@H](C(=C)C)[C@](C)(CCC(=O)O)C3=CC[C@]12C)C(C)C [PORICOIC ACID A]
- IC50 (B16): 48 µg/mL (≈ 96.3 µM)

- IC50 (Mushroom tyrosinase [12]): 2.62 µg/mL
- IC50 [10]: 69.36 µg/mL (≈ 150 µM)
- IC50 [11]: 135.31 µg/mL (≈ 293 µM)
SMILES: COc1c(O[C@@H]2O[C@H](CO)[C@@H](O)[C@H](O)[C@H]2O)cc2occ(-c3ccc(O)cc3)c(=O)c2c1O [TECTORIDIN]

- IC50 (Mushroom tyrosinase [12]): 1.39 µg/mL
- IC50 [10]: 46.34 µg/mL (≈ 154 µM)
- IC50 [11]: 45.6 µg/mL (≈ 152 µM)
SMILES: COc1c(O)cc2occ(-c3ccc(O)cc3)c(=O)c2c1O [TECTORIGENIN]

SMILES: Cc1ccc(C(C)C)c(O)c1 [THYMOL]
- IC50 (B16-F10 [16]): 160 µM

SMILES: C/C1=C\CC(C)(C)/C=C/C(=O)/C(C)=C/CC1 [ZERUMBONE]
- Activity (B16-F10 [17]): 40%
